Experiments:
[1] = tested on: peripheral blood cells; test: filipin staining of peripheral blood cells measured by flow cytometry after inducing cholesterol dysregulation; assay type: cell-based; settings: peripheral blood cells (PBCs) treated with the compound; FIG. 7
From the text: In some embodiments, peripheral blood cells can be isolated and filipin levels measured by flow cytometry. This can allows for the cells to be isolated inexpensively and at minimal risk to the patient from simple venipuncture rather than requiring the invasive punch biopsy method for collection of fibroblasts as used and described in the results presented herein. A venipuncture can be performed with a venipuncture assembly including, for example, but not limited to, a plastic hub, a hydrodermic needle, a vacuum tube, a syringe, a butterfly needle, and/or other blood collection or vanipuncture devices known in the art. Accordingly, the ability to isolate peripheral blood cells and measure the filipin levels by flow cytometry can facilitate the commercialization of the testing procedure and techniques described herein for preventing and detecting disease. The isolation of peripheral blood cells and measuring of the filipin levels by flow cytometry was tested in two ways. […] Cholesterol dysregulation was induced by treating the cells with Ul 8666A, a compound that inhibits cholesterol synthesis and intracellular trafficking.

[2] = clinical trials, cited from earlier work; for mitigation of clinical AD progression: drugs aimed at preventing Aβ aggregates from forming into SPs

SMILES | mitigation of clinical AD progression [2] | other results
CCN(CC)CCO[C@H]1CC[C@@]2(C)C(=CC[C@@H]3[C@@H]2CC[C@]2(C)C(=O)CC[C@@H]32)C1 [U18666A] |  | effect on filipin staining (filipin fluorescence) [1]: dose-dependent effect
NCCCS(=O)(=O)O [homotaurine] | failed to mitigate clinical AD progression | 
O[C@H]1[C@H](O)[C@@H](O)[C@H](O)[C@@H](O)[C@@H]1O [scyllo-inositol] | failed to mitigate clinical AD progression | 
C[C@@H](C(=O)O)c1ccc(-c2ccccc2)c(F)c1 [tarenflurbil] |  | benefit to cognitive function ([2]; compounds targeting γ-secretase, even when reducing Aβ levels): no benefit to cognitive function
